Results on four compounds are retold here after patent US10010585B2, “Methods of treating vestibular schwannoma and reducing hearing or neurite loss caused by vestibular schwannoma” (Massachusetts Eye and Ear Infirmary, priority 2014, dated 2018).

Series [1] concerns NF2 VSs. To be noted: NF2 VS patients; cited from earlier work.
In series [2] the test system is primary VS cells. The series is described as follows: TUNEL cell death assay in primary VS cultures. It is filed as cell-based, human. To be noted: 48 hours. As for the experimental part:
Rate of apoptosis in 6 VS cultures was assessed and correlated with tumor growth in vivo and tumor volume. […] Apoptosis was measured using terminal deoxynucleotidyl transferase dUTP nick end labeling (TUNEL, Roche Applied Sciences, NY) following manufacturer's instructions. Briefly, immunofluorescence protocol was followed as described under ‘Immunofluorescence,’ until fixations, then the cells were washed with PBS thrice and incubated in 1% Triton-X for 10 minutes on shaker. The cells were washed with PBS once and incubated in TUNEL mix for 1 hour at 37° C., then for 30 minutes at RT on shaker. The cells were then incubated in rhodamine phalloidin (Life Technologies, NY, 1:40) and Hoechst stain for 20 minutes, washed with PBS thrice and mounted onto slides for imaging. TUNEL and Hoechst stained nuclei were counted in >3 fields and the ratio of TUNEL positive to Hoechst positive nuclei was used to determine apoptosis rate in vitro. A positive control of 10 minutes-DNAse (Roche Applied Sciences, NY) treatment prior to TUNEL labeling was utilized.
(§1) For siRNA treatment, cultured primary VS cells or HEI-193 cells were placed in antibiotic and serum free media overnight. The next day, the cells were incubated with Life Technologies siRNAs targeting NF-κB genes RELA and NF-κB1, with control cells being treated with vehicle only (Lipofectamine RNAiMax), for 5 days. Some cultures were also incubated with a fluorescent random Oligo (Life Technologies) along with vehicle to assess transfection efficiency. siRNA experiments were performed in antibiotic and serum free media.
BAY11 or curcumin, diluted in 100% DMSO, were mixed to the accurate concentrations in warmed media and applied to the cultures (with DMSO concentration in media being 1% maximum), alongside a no-treatment control receiving media alone with appropriate corresponding DMSO levels.
After 48 hours of treatment, primary VS and Schwann cultures were fixed for BrdU staining, to visualize proliferation, or TUNEL staining, to visualize cell death.
After 48 hours of treatment with salicylates, primary VS and SC cultures were fixed for BrdU staining, to visualize proliferation, or TUNEL staining, to visualize cell death.

Series [3] deals with primary SCs. The series is described as follows: BrdU proliferation assay in primary Schwann cell cultures. To be noted: 48 hours. The class given is cell-based, human. As for the experimental part: (§2) Proliferation rate of 12 VS cultures was assessed and correlated with the tumor volume in the latest gadolinium enhanced T1-weighted MRI scan prior to surgical resection, and with tumor growth in vivo, measured as changes in the tumor's volume over time calculated from serial MRI scans. Tumor growth was standardized by dividing the growth rate by the initial tumor volume. Separate analyses were performed for solid tumors, which generally account for approximately 96% of VSs (Charabi et al., 1994), versus all studied tumors, which included 4 out of 13 total tumors with a visible cystic component, because cystic components could misrepresent true tumor volume (Charabi et al., 1994). To determine the level of cell proliferation in the cultures, Bromodeoxyuridine (BrdU) was added to the cells at a concentration of 10 μg/ml 20 hours before the cells were fixed. The cells were kept in the dark after the addition of BrdU Immunofluorescence protocol was followed as described under ‘Immunofluorescence,’ and cell and nuclear membranes were permeablized by incubation in 1% Triton-X for 10 minutes and by incubation in 2N Hydrochloric acid for 20 minutes, respectively, after fixation. Primary antibody against BrdU (AbD Serotec, NC, 1:200) and anti-rat IgG (Life Technologies, NY, 1:1000) were used. BrdU- and Hoechst-stained nuclei were counted in 3-5 fields and the ratio of BrdU positive to Hoechst positive nuclei was used to determine the proliferation rate in vitro.
(§3) Cultured human primary VS cells, primary SCs and HEI-193 cells were treated with NF-κB inhibitors BAY11-7082 (BAY11) or curcumin for 48 hours (Santa Cruz Biotechnology). BAY11 or curcumin, diluted in 100% DMSO, were mixed to the accurate concentrations in warmed media and applied to the cultures (with DMSO concentration in media being 1% maximum), alongside a no-treatment control receiving media alone with appropriate corresponding DMSO levels. Experiments were performed in media fortified with antibiotics and serum (same formulation as described in Example 1 for culturing cells).
(§4) After 48 hours of treatment, primary VS and Schwann cultures were fixed for BrdU staining, to visualize proliferation, or TUNEL staining, to visualize cell death. The same methodology as described in Example 1 was utilized. Cleaved caspase 3 staining, another apoptosis marker to reinforce findings using TUNEL, was conducted using an antibody against cleaved caspase 3 following the ‘immunofluorescence’ protocol outlined in Example 1.
(§5) The cultures were incubated with the drugs for 48 hours. To label proliferating cells, BrdU was added 20 hours before fixation. pH was measured in the media after drug addition to ensure no significant deviations.
(§6) After 48 hours of treatment with salicylates, primary VS and SC cultures were fixed for BrdU staining, to visualize proliferation, or TUNEL staining, to visualize cell death. The same methodology as described in Example 1 was utilized.

Series [4] deals with primary VS cells. The series is described as follows: BrdU proliferation assay in primary VS cultures. To be noted: 48 hours. The class given is cell-based, human. As for the experimental part: as §2, with “vitro. […]” for “vitro.”
as §3, §4, §5, §6
To understand cross-talk between HGF and VEGF-A pathway, cultured VS cells were incubated with Life Technologies silencer select siRNAs targeting VEGFA (s461) or MET (s8700). To understand whether HGF signaling contributed to VS proliferation, cultured VS cells were treated with MET inhibitor SU11274 (Sigma-Aldrich, MO, #S9820). Seventy-two hours after siRNA treatment or 12 hours after treatment with SU11274 (2 μM), cells were incubated with 10 μg/mL BrdU (Life Technologies, NY, # B23151) for 20 hours before fixation.

For series [5], the system named is COX-2. To be noted: 48 hours, VS culture media. As for the experimental part: Prostaglandin (PTG) E2 was assayed in the media of VS cultures using the Prostaglandin E2 Parameter Assay Kit (R&D Systems, KGE004B). The media was collected after 48 hours of treatment from non-treated and treated cultured cells. Manufacturer's instructions were closely followed.
as §5

The test system of series [6] is primary SCs. The series is described as follows: TUNEL cell death assay in primary Schwann cell cultures. It is filed as cell-based, human. To be noted: human, 48 h. As for the experimental part: (§7) Rate of apoptosis in 6 VS cultures was assessed and correlated with tumor growth in vivo and tumor volume. Two out of the six VS had cystic components. Apoptosis was measured using terminal deoxynucleotidyl transferase dUTP nick end labeling (TUNEL, Roche Applied Sciences, NY) following manufacturer's instructions. Briefly, immunofluorescence protocol was followed as described under ‘Immunofluorescence,’ until fixations, then the cells were washed with PBS thrice and incubated in 1% Triton-X for 10 minutes on shaker. The cells were washed with PBS once and incubated in TUNEL mix for 1 hour at 37° C., then for 30 minutes at RT on shaker. The cells were then incubated in rhodamine phalloidin (Life Technologies, NY, 1:40) and Hoechst stain for 20 minutes, washed with PBS thrice and mounted onto slides for imaging. TUNEL and Hoechst stained nuclei were counted in >3 fields and the ratio of TUNEL positive to Hoechst positive nuclei was used to determine apoptosis rate in vitro. A positive control of 10 minutes-DNAse (Roche Applied Sciences, NY) treatment prior to TUNEL labeling was utilized.
as §3, §4

For series [7], the system named is HEI-193 NF2 VS cell line. The series is described as follows: TUNEL cell death assay in HEI-193 cells. To be noted: 48 hours. The class given is cell-based, human. Here is the method:
as §7
(§8) The same methodology as described in Example 1 was utilized for primary VS and SC cultures. Cultures were treated with NF-κB inhibitors approximately after 2 weeks of culturing. HEI-193 cell line was a gift from Dr. Giovannini at the House Ear Institute (Hung et al., 2002a).
as §1, §3, §4

The test system of series [8] is HEI-193 NF2 VS cell line. The series is described as follows: BrdU proliferation assay in HEI-193 cells. It is filed as cell-based, human. The note with it: 48 hours. As for the experimental part:
as §2, §8, §1, §3, §4

“And” between values parts separate entries of the source, which are not always exact repeats. Equal entries are not always repeated. Where two headings read alike, the source gives them in different places.

Regarding `CS(=O)(=O)CCNCc1ccc(-c2ccc3ncnc(Nc4ccc(OCc5cccc(F)c5)c(Cl)c4)c3c2)o1` [Lapatinib, lapatinib], in series [1], the “patients with decrease in tumor size / volume” value is “approximately 24%” and the “patients with hearing improvement” value is roughly 31%.

`O=C([O-])c1ccccc1O.[Na+]` [NaSal, sodium salicylate] registered a cell death rate in series [2] (5 mM) of 3.3±2.3%. Moreover, the “proliferation, of the NT cells” value was 104.4±13.2% in series [3] (5 mM); 64.9±18.9% in series [3] (10 mM); 18% and 18.9±5.0% in series [4] (1 mM); 25.4±11.1% in series [4] (5 mM); 20.6±11.2% in series [4] (10 mM). Besides, the “secreted PTG levels, of NT cells” value in series [5] (1 mM) came to 3.8%; in series [5] (5 mM), 32.2%.

In the case of `COc1cc(/C=C/C(=O)CC(=O)/C=C/c2ccc(O)c(OC)c2)ccc1O` [curcumin], the cell death rate in series [2] (5 μM) was found to be 11.6±6.3%; in series [2] (20 μM), 1.8±1.0%; in series [2] (50 μM), 73.3±6.3%; in series [6] (20 μM), 1.7±0.4%; in series [6] (50 μM), 52.2±14.9%; in series [7] (5 μM) it was 0.3±0.1%. Also, the cell death rate in series [7] (20 μM) is listed as 77.3±8.4%; in series [7] (50 μM) it was 97.8±1.5%. In addition, in series [6] (5 μM), the “apoptosis / cell death rate” value was 1.3±0.3%. Also, the normalized proliferation rate in series [3] (5 μM) is listed as 85.3±25.7%; in series [3] (20 μM), 31.0±18.3%; in series [3] (50 μM) it was 3.14%; in series [8] (5 μM) it was 95.0±1.6%; in series [8] (20 μM), 0.4±0.4%; in series [8] (50 μM) it was 2.3±2.3%. The figures for the “proliferation, of the non-treated cells” value in series [4] (5 μM) and in series [4] (20 μM) were 141.8%±95.2% and 23.0±20.9%, respectively.

As to bevacizumab, in series [1], the “patients with decrease in tumor size / volume” value was 55% and the “patients with hearing improvement” value is on record as 57%.
